Source: patent US5945426A, “Derivatives of pyrimidine for treating acute cerebrovascular disorders” (Nippon Shinyaku Co., Ltd., priority 1994, dated 1999)
Counter-ions that a name gives are not always drawn.

Assays:
[1] = system: pyramidal cells in the hippocampal CA-1 subfield; assay: Delayed Neuronal Death (DND) Inhibitory Activity in Gerbils (transient ischemia, bilateral common carotid artery occlusion); assay type: in vivo; details: for DND inhibition (score of neuronal death in the hippocampal CA-1 subfield): given at reperfusion after 5-minute ischemia, score 0 (0-10% death) to 4 (75-100% death), control 4.00, n=5, **: p < 0.01 (Wilcoxon's U test)
Source text: Delayed Neuronal Death (DND) Inhibitory Activity in Gerbils
The delayed neuronal death protective effect of the compound of the invention was confirmed by an experiment using gerbils. This test is the most widely used for all relevant in vivo evaluation protocols and it is reported that any drug showing DND inhibitory activity in this test system can be expected to be clinically effective in humans [GENDAI-IRYO, 24, 129-133 (1992), Neurology 1987, 37, 1281-1287).
Male gerbils weighing 60-80 g were anesthetized with pentobarbital sodium 35 mg/kg i.p. and placed in supine position. After the skin in the cervical region was incised, the bilateral common carotid arteries were exposed and sutures were placed around each artery. Both ends of each suture was introduced into a polyethylene tube and in suturing the incised wound, the tube was secured to the cervical skin with the suture emerged from the other end of the tube. On the following day, with the animal under no anesthesia, both ends of the suture were gently pulled out and the carotid artery snared by the suture was urged in a bent position into the tube to thereby occlude the carotid artery. After a transient ischemic loading of 5 minutes' duration by occlusion of the bilateral common carotid arteries, the arteries were reperfused. After 7 days, the brain was excised and fixed. A section centered around the hippocampus was prepared and Nissle-stained with 0.05% cresyl violet and the pyramidal cells in the hippocampal CA-1 subfield were microscopically examined for degeneration and death. The degree of neuronal death was scored according to the following criteria.
Criteria for evaluation of neuronal death in the hippocampal CA-1 subfield

[2] = system: cerebral infarction (middle cerebral artery occlusion); assay: Protection of Cerebral Infarction in Rats With Middle Cerebral Artery Occlusion; assay type: in vivo, Male SD rats; details: 0.125 mg/kg, intravenously after middle cerebral artery occlusion
Source text: Protection of Cerebral Infarction in Rats With Middle Cerebral Artery Occlusion
The cerebral infarction protective effect of the compound of the invention was confirmed in a rat middle cerebral artery occlusion model. This is an animal model of brain regional ischemia which is similar to human cerebral infarction and it is known that the model is useful as a therapeutic model as well (Cerebral Apoplexy Experiment Handbook, 91-97, 1990, published by ICP). Any drug showing cerebral infarction protective activity in this test system can be expected to be clinically effective in humans.
Male SD rats aged 7-8 weeks were anesthetized with ketamin hydrochloride 120-150 mg/kg, i.p. and the head was placed in lateral recumbent position on an operation table. […] Then, the frontal sections were photographed and using an image processor, the areas of infarction were measured. The percentage of the infarct area in the frontal section 6 mm caudal to frontal rostrum, that is at the striatal level, relative to the total area of the tissue section and the total infarct area of the 5 frontal sections prepared at 2 mm intervals from the frontal rostrum was calculated and the percentage of the total infarct area relative to the total area of all the sections was calculated. […]

NMDA receptor = assay: NMDA-Induced Convulsion Inhibitory Activity; assay type: in vivo, Mice; details: 20 mg/kg, i.p. 30 minutes before NMDA 200 mg/kg i.p.
Procedure: NMDA-Induced Convulsion Inhibitory Activity
Mice were intraperitoneally dosed with 200 mg/kg of N-methyl-D-aspartate (NMDA) and observed for the consequent convulsion and death over a period of 30 minutes after administration. As test drugs, the compound of Example 1, compound of Example 2, compound of Reference Example 10, and compound of Reference Example 12 were used and each was administered intraperitoneally 30 minutes before administration of NMDA.

Acute Toxicity Study = assay type: in vivo
Procedure: Male SD rats (Slc:SD, Japan SLC) were used. The rats were purchased at 7 weeks of age and the animals which went through a week-long quarantine and acclimation were used in groups of 6. The dose volume was 5 ml/kg for intraperitoneal administration and 10 ml/kg for intravenous administration. […] The drug solutions were prepared using physiological saline and filtered through a 0.22 μm bacterial filter.

[3] = background art; cited from earlier work
delayed neuronal death = details: background art; cited from earlier work

Compound: Cc1nc(OCCCCCN2CCCCC2)cc(-c2ccc(F)cc2)n1.Cl [Example 1, 4-(4-Fluorophenyl)-2-methyl-6-(5-piperidinopentyloxy)pyrimidine hydrochloride]
- DND inhibition (score of neuronal death in the hippocampal CA-1 subfield) ([1]; 50 mg/kg i.p.): 0.60
- protection activity against the delayed neuronal death, post-ischemia dosing ([1]; single dose after a lapse of 1-2 hours after ischemia): exhibited a protection activity against the delayed neuronal death
- inhibition of neuronal death in the rat model of persistent brain ischemia [2]: markedly inhibited neuronal death
- inhibition of NMDA-induced convulsion (NMDA receptor): did not inhibit
- general condition of animals (Acute Toxicity Study; intraperitoneal, observed daily for 7 days): no remarkable change
- LD50 at 168 h (Acute Toxicity Study; rat, in vivo, ip, intraperitoneal): 65.8 mg/kg
- LD50 at 168 h (Acute Toxicity Study; rat, in vivo, intravenous): 22.8 mg/kg

Compound: Cc1cc(OCCN2CCN(c3ccccc3)CC2)nc(-c2ccccc2)n1 [4-methyl-2-phenyl-6-[2-(4-phenylpiperazin-1-yl)ethyloxy]pyrimidine]
- α-sympatholytic activity (sedation, hypotension, and vasodilation) [3]: has α-sympatholytic activity (sedation, hypotension, and vasodilation)

Compound: Cc1nc(OCCCN2CCCCC2)cc(-c2ccc(F)cc2)n1.Cl [Reference Example 10, 4-(4-Fluorophenyl)-2-methyl-6-(3-piperidinopropoxy)pyrimidine hydrochloride]
- DND inhibition (score of neuronal death in the hippocampal CA-1 subfield) ([1]; 50 mg/kg i.p.): 0.60
- inhibition of NMDA-induced convulsion (NMDA receptor): did not inhibit
- general condition of animals (Acute Toxicity Study; rat, in vivo, ip): no remarkable change

Compound: Cc1cc(OCCCCN2CCCCC2)nc(-c2ccc(F)cc2)n1.Cl [Example 4, 2-(4-Fluorophenyl)-4-methyl-6-(4-piperidinobutoxy)pyrimidine hydrochloride]
- DND inhibition (score of neuronal death in the hippocampal CA-1 subfield) ([1]; 50 mg/kg i.p.): 0.60
- general condition of animals (Acute Toxicity Study; rat, in vivo, ip): no remarkable change

Compound: Cc1cc(OCCCN2CCCCC2)nc(-c2ccc(F)cc2)n1.Cl [Reference Example 12, 2-(4-Fluorophenyl)-4-methyl-6-(3-piperidinopropoxy)pyrimidine hydrochloride]
- inhibition of NMDA-induced convulsion (NMDA receptor): did not inhibit

Compound: Cc1nc(OCCCCCCN2CCCCC2)cc(-c2ccc(F)cc2)n1 [Example 3, 4-(4-Fluorophenyl)-2-methyl-6-(6-piperidinohexyloxy)primidine hydrochloride]
- DND inhibition (score of neuronal death in the hippocampal CA-1 subfield) ([1]; 30 mg/kg, i.p.): 0.60
- general condition of animals (Acute Toxicity Study; rat, in vivo, ip): no remarkable change

Compound: Cc1nc(OCCCCN2CCCCC2)cc(-c2ccc(F)cc2)n1.Cl [Example 2, 4-(4-Fluorophenyl)-2-methyl-6-(4-piperidinobutoxy)pyrimidine hydrochloride]
- DND inhibition (score of neuronal death in the hippocampal CA-1 subfield) ([1]; 50 mg/kg i.p.): 0.80
- inhibition of NMDA-induced convulsion (NMDA receptor): did not inhibit
- general condition of animals (Acute Toxicity Study; rat, in vivo, ip): no remarkable change

Compound: Cc1cc(-c2ccc(F)cc2)cc(OCCCN2CCCCC2)n1.Cl [Example 16, 4-(4-Fluorophenyl)-2-methyl-6-(3-piperidinopropoxy)pyridine hydrochloride]
- DND inhibition (score of neuronal death in the hippocampal CA-1 subfield) ([1]; 50 mg/kg i.p.): 0.60
- general condition of animals (Acute Toxicity Study; rat, in vivo, ip): no remarkable change

Compound: Cc1cc(-c2ccc(F)cc2)cc(OCCCCCN2CCCCC2)n1.Cl [Example 18, 4-(4-Fluorophenyl)-2-methyl-6-(5-piperidinopentyloxy)pyridine hydrochloride]
- DND inhibition (score of neuronal death in the hippocampal CA-1 subfield) ([1]; 50 mg/kg i.p.): 0.80
- general condition of animals (Acute Toxicity Study; rat, in vivo, ip): no remarkable change

Compound: CCCn1cnc2c1c(=O)n(CCCCC(C)=O)c(=O)n2C [propentofylline]
- effect against delayed neuronal death (delayed neuronal death): effective against delayed neuronal death

Compound: Cc1nc(OC(C)CCCN2CCCCC2)cc(-c2ccc(F)cc2)n1.Cl (centres unmarked) [Example 21, 4-(4-Fluorophenyl)-2-methyl-6-(1-methyl-4-piperidinobutoxy)pyrimidine hydrochloride]
- DND inhibition (score of neuronal death in the hippocampal CA-1 subfield) ([1]; 50 mg/kg i.p.): 0.60
- general condition of animals (Acute Toxicity Study; rat, in vivo, ip): no remarkable change
